From the supplement of paper PMC10307832

How the values were obtained:
Test in all cases: relative viability (nuclei count vs DMSO), 5 days (fraction); higher = more cells survive
[1] = compound: COc1cc(Nc2ncc3c(n2)-c2ccc(Cl)cc2C(c2c(F)cccc2OC)=NC3)ccc1C(=O)O [Alisertib] + COc1cccc2cc(-c3nc([C@H]4CC[C@H](C(=O)O)CC4)n4ncnc(N)c34)[nH]c12 [OSI-027] (partner 0.5 µM)
In short: (§1)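 Lung cancer cell lines in 1536-well plates were dosed by pin tool the day after seeding, either with one drug alone or with a fixed anchor-drug dose plus five library-drug doses (not always all listed) in √10 steps. After 5 days, cells were fixed and their nuclei stained in one step (final 0.05% Triton X-100, 1% formaldehyde, 1 ug/ml Hoechst), then counted on 4× images. Relative viability is the nuclei count in treated wells divided by that in vehicle wells. Values are medians of duplicate plates.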

[2] = compound: COc1cc(Nc2ncc3c(n2)-c2ccc(Cl)cc2C(c2c(F)cccc2OC)=NC3)ccc1C(=O)O [Alisertib] + CS(=O)(=O)CCNCc1ccc(-c2ccc3ncnc(Nc4ccc(OCc5cccc(F)c5)c(Cl)c4)c3c2)o1 [Lapatinib] (partner 2 µM)
In short: as §1

[3] = compound: COc1cc(Nc2ncc3c(n2)-c2ccc(Cl)cc2C(c2c(F)cccc2OC)=NC3)ccc1C(=O)O [Alisertib] + C[C@]1(O)C[C@@H](c2nc(-c3ccc4ccc(-c5ccccc5)nc4c3)c3c(N)nccn32)C1 [Linsitinib] (partner 1 µM)
In short: as §1

[4] = compound: COc1cc(Nc2ncc3c(n2)-c2ccc(Cl)cc2C(c2c(F)cccc2OC)=NC3)ccc1C(=O)O [Alisertib] + Cc1nc(NC(=O)N2CCC[C@H]2C(N)=O)sc1-c1ccnc(C(C)(C)C(F)(F)F)c1 [Alpelisib] (partner 2 µM)
In short: as §1

Cell Line NCI-H1975 has a relative viability ([1]; first compound 0.005 µM) of 0.582, a relative viability ([1]; first compound 0.01581 µM) of 0.715 and a relative viability ([1]; first compound 0.05 µM) of 0.431. The relative viability ([1]; first compound 0.1581 µM) was 0.192, the relative viability ([1]; first compound 0.5 µM) was 0.143 and the relative viability ([2]; first compound 0.005 µM) was 0.78. It also gave a relative viability ([2]; first compound 0.01581 µM) of 0.808, a relative viability ([2]; first compound 0.05 µM) of 0.457 and a relative viability ([2]; first compound 0.1581 µM) of 0.234. For the same cell line, the relative viability ([2]; first compound 0.5 µM) was 0.174, the relative viability ([3]; first compound 0.005 µM) was 0.917 and the relative viability ([3]; first compound 0.01581 µM) was 0.861. For the same cell line, the relative viability ([3]; first compound 0.05 µM) was 0.484, the relative viability ([3]; first compound 0.1581 µM) was 0.331 and the relative viability ([3]; first compound 0.5 µM) was 0.188. It also gave a relative viability ([4]; first compound 0.005 µM) of 0.632, a relative viability ([4]; first compound 0.01581 µM) of 0.621 and a relative viability ([4]; first compound 0.05 µM) of 0.295. The relative viability ([4]; first compound 0.1581 µM) was 0.215 and the relative viability ([4]; first compound 0.5 µM) was 0.168.

NCI-H1993 gave a relative viability ([1]; first compound 0.005 µM) of 0.55, a relative viability ([1]; first compound 0.01581 µM) of 0.46 and a relative viability ([1]; first compound 0.05 µM) of 0.435. The relative viability ([1]; first compound 0.1581 µM) was 0.547, the relative viability ([1]; first compound 0.5 µM) was 0.512 and the relative viability ([2]; first compound 0.005 µM) was 0.81. It also gave a relative viability ([2]; first compound 0.01581 µM) of 0.694, a relative viability ([2]; first compound 0.05 µM) of 0.537 and a relative viability ([2]; first compound 0.1581 µM) of 0.539. It also gave a relative viability ([2]; first compound 0.5 µM) of 0.5, a relative viability ([3]; first compound 0.005 µM) of 0.685 and a relative viability ([3]; first compound 0.01581 µM) of 0.659. The relative viability ([3]; first compound 0.05 µM) was 0.606, the relative viability ([3]; first compound 0.1581 µM) was 0.613 and the relative viability ([3]; first compound 0.5 µM) was 0.578. It also gave a relative viability ([4]; first compound 0.005 µM) of 0.625, a relative viability ([4]; first compound 0.01581 µM) of 0.652 and a relative viability ([4]; first compound 0.05 µM) of 0.538. It also gave a relative viability ([4]; first compound 0.1581 µM) of 0.625 and a relative viability ([4]; first compound 0.5 µM) of 0.573.

In the case of NCI-H2009, the relative viability ([1]; first compound 0.005 µM) is reported as 0.497, the relative viability ([1]; first compound 0.01581 µM) is reported as 0.587 and the relative viability ([1]; first compound 0.05 µM) is reported as 0.334. For the same cell line, the relative viability ([1]; first compound 0.1581 µM) was 0.233, the relative viability ([1]; first compound 0.5 µM) was 0.152 and the relative viability ([2]; first compound 0.005 µM) was 0.863. It also gave a relative viability ([2]; first compound 0.01581 µM) of 0.76, a relative viability ([2]; first compound 0.05 µM) of 0.355 and a relative viability ([2]; first compound 0.1581 µM) of 0.255. For the same cell line, the relative viability ([2]; first compound 0.5 µM) was 0.319, the relative viability ([3]; first compound 0.005 µM) was 1.24 and the relative viability ([3]; first compound 0.01581 µM) was 1.14. For the same cell line, the relative viability ([3]; first compound 0.05 µM) was 0.672, the relative viability ([3]; first compound 0.1581 µM) was 0.427 and the relative viability ([3]; first compound 0.5 µM) was 0.213. It also gave a relative viability ([4]; first compound 0.005 µM) of 1.15, a relative viability ([4]; first compound 0.01581 µM) of 1.02 and a relative viability ([4]; first compound 0.05 µM) of 0.417. For the same cell line, the relative viability ([4]; first compound 0.1581 µM) was 0.375 and the relative viability ([4]; first compound 0.5 µM) was 0.265.

With NCI-H2023 the relative viability ([1]; first compound 0.005 µM) was 0.333, the relative viability ([1]; first compound 0.01581 µM) was 0.324 and the relative viability ([1]; first compound 0.05 µM) was 0.317. The relative viability ([1]; first compound 0.1581 µM) was 0.162, the relative viability ([1]; first compound 0.5 µM) was 0.0743 and the relative viability ([2]; first compound 0.005 µM) was 0.848. The relative viability ([2]; first compound 0.01581 µM) was 0.602, the relative viability ([2]; first compound 0.05 µM) was 0.41 and the relative viability ([2]; first compound 0.1581 µM) was 0.135. The relative viability ([2]; first compound 0.5 µM) was 0.0899, the relative viability ([3]; first compound 0.005 µM) was 0.653 and the relative viability ([3]; first compound 0.01581 µM) was 0.505. It also gave a relative viability ([3]; first compound 0.05 µM) of 0.355, a relative viability ([3]; first compound 0.1581 µM) of 0.285 and a relative viability ([3]; first compound 0.5 µM) of 0.108. For the same cell line, the relative viability ([4]; first compound 0.005 µM) was 0.571, the relative viability ([4]; first compound 0.01581 µM) was 0.412 and the relative viability ([4]; first compound 0.05 µM) was 0.456. For the same cell line, the relative viability ([4]; first compound 0.1581 µM) was 0.351 and the relative viability ([4]; first compound 0.5 µM) was 0.117.

In the case of NCI-H2085, the relative viability ([1]; first compound 0.005 µM) is reported as 0.591, the relative viability ([1]; first compound 0.01581 µM) is reported as 0.746 and the relative viability ([1]; first compound 0.05 µM) is reported as 0.469. For the same cell line, the relative viability ([1]; first compound 0.1581 µM) was 0.222, the relative viability ([1]; first compound 0.5 µM) was 0.235 and the relative viability ([2]; first compound 0.005 µM) was 0.752. It also gave a relative viability ([2]; first compound 0.01581 µM) of 0.692, a relative viability ([2]; first compound 0.05 µM) of 0.422 and a relative viability ([2]; first compound 0.1581 µM) of 0.306. For the same cell line, the relative viability ([2]; first compound 0.5 µM) was 0.323, the relative viability ([3]; first compound 0.005 µM) was 0.876 and the relative viability ([3]; first compound 0.01581 µM) was 0.85. For the same cell line, the relative viability ([3]; first compound 0.05 µM) was 0.516, the relative viability ([3]; first compound 0.1581 µM) was 0.389 and the relative viability ([3]; first compound 0.5 µM) was 0.281. The relative viability ([4]; first compound 0.005 µM) was 0.892, the relative viability ([4]; first compound 0.01581 µM) was 0.91 and the relative viability ([4]; first compound 0.05 µM) was 0.465. It also gave a relative viability ([4]; first compound 0.1581 µM) of 0.352 and a relative viability ([4]; first compound 0.5 µM) of 0.314.

NCI-H2087 showed a relative viability ([1]; first compound 0.005 µM) of 0.542, a relative viability ([1]; first compound 0.01581 µM) of 0.521 and a relative viability ([1]; first compound 0.05 µM) of 0.204. The relative viability ([1]; first compound 0.1581 µM) was 0.111, the relative viability ([1]; first compound 0.5 µM) was 0.098 and the relative viability ([2]; first compound 0.005 µM) was 1.16. It also gave a relative viability ([2]; first compound 0.01581 µM) of 0.724, a relative viability ([2]; first compound 0.05 µM) of 0.245 and a relative viability ([2]; first compound 0.1581 µM) of 0.188. It also gave a relative viability ([2]; first compound 0.5 µM) of 0.183, a relative viability ([3]; first compound 0.005 µM) of 0.866 and a relative viability ([3]; first compound 0.01581 µM) of 0.669. The relative viability ([3]; first compound 0.05 µM) was 0.276, the relative viability ([3]; first compound 0.1581 µM) was 0.236 and the relative viability ([3]; first compound 0.5 µM) was 0.228. The relative viability ([4]; first compound 0.005 µM) was 0.939, the relative viability ([4]; first compound 0.01581 µM) was 0.816 and the relative viability ([4]; first compound 0.05 µM) was 0.226. For the same cell line, the relative viability ([4]; first compound 0.1581 µM) was 0.203 and the relative viability ([4]; first compound 0.5 µM) was 0.171.

In the case of NCI-H2126, the relative viability ([1]; first compound 0.005 µM) is reported as 0.721, the relative viability ([1]; first compound 0.01581 µM) is reported as 0.696 and the relative viability ([1]; first compound 0.05 µM) is reported as 0.588. For the same cell line, the relative viability ([1]; first compound 0.1581 µM) was 0.318, the relative viability ([1]; first compound 0.5 µM) was 0.36 and the relative viability ([2]; first compound 0.005 µM) was 0.688. The relative viability ([2]; first compound 0.01581 µM) was 0.754, the relative viability ([2]; first compound 0.05 µM) was 0.713 and the relative viability ([2]; first compound 0.1581 µM) was 0.408. It also gave a relative viability ([2]; first compound 0.5 µM) of 0.312, a relative viability ([3]; first compound 0.005 µM) of 0.709 and a relative viability ([3]; first compound 0.01581 µM) of 0.752. The relative viability ([3]; first compound 0.05 µM) was 0.467, the relative viability ([3]; first compound 0.1581 µM) was 0.342 and the relative viability ([3]; first compound 0.5 µM) was 0.256. For the same cell line, the relative viability ([4]; first compound 0.005 µM) was 0.746, the relative viability ([4]; first compound 0.01581 µM) was 0.746 and the relative viability ([4]; first compound 0.05 µM) was 0.384. It also gave a relative viability ([4]; first compound 0.1581 µM) of 0.322 and a relative viability ([4]; first compound 0.5 µM) of 0.246.

With NCI-H2228 the relative viability ([1]; first compound 0.005 µM) was 0.589, the relative viability ([1]; first compound 0.01581 µM) was 0.466 and the relative viability ([1]; first compound 0.05 µM) was 0.27. For the same cell line, the relative viability ([1]; first compound 0.1581 µM) was 0.0993, the relative viability ([1]; first compound 0.5 µM) was 0.115 and the relative viability ([2]; first compound 0.005 µM) was 0.731. For the same cell line, the relative viability ([2]; first compound 0.01581 µM) was 0.562, the relative viability ([2]; first compound 0.05 µM) was 0.182 and the relative viability ([2]; first compound 0.1581 µM) was 0.115. The relative viability ([2]; first compound 0.5 µM) was 0.209, the relative viability ([3]; first compound 0.005 µM) was 0.55 and the relative viability ([3]; first compound 0.01581 µM) was 0.936. For the same cell line, the relative viability ([3]; first compound 0.05 µM) was 0.317, the relative viability ([3]; first compound 0.1581 µM) was 0.12 and the relative viability ([3]; first compound 0.5 µM) was 0.095. For the same cell line, the relative viability ([4]; first compound 0.005 µM) was 0.781, the relative viability ([4]; first compound 0.01581 µM) was 0.499 and the relative viability ([4]; first compound 0.05 µM) was 0.256. It also gave a relative viability ([4]; first compound 0.1581 µM) of 0.133 and a relative viability ([4]; first compound 0.5 µM) of 0.193.
